Reference: patent publication US10752900B2, “Oligonucleotides for modulating gene expression and uses thereof” (BIOGENERA S.P.A., priority 2012, dated 2020)

Tests used:
Format in all cases: cell-based, human
[1] = system: rabdomyosarcoma cells (RH30); assay: Cellular proliferation assay (ATP-Lite), RH30 cells; details: Table 6, PNA
Procedure: For the purpose of assessing the gene modulation ability of the oligonucleotides of the present invention, the effect of their administration on cell viability was determined. For this purpose 5×10^3 cells per well were seeded into 96-well cell culture plates (experiments conducted in triplicate) with 100 μl of OPTI-MEM (GIBCO BRL) medium containing 4% FBS and 2 mM of L-glutammine. The PNA oligonucleotides were administered at different concentrations (1 μM-2.5 μM-5 μM-10 μM) in order to observe a dose-effect relationship. As regards all the other oligonucleotides, the concentrations at which they administered are listed in the paragraph: The viability of the treated cells was determined at 48, 72, 96 and 168 hours after treatment. Cell viability was assessed by means of an ATP-Lite assay (Luminescence ATP Detection Assay System, PerkinElmer) and is reported as the ratio between the average signal of the treated wells compared to the average value of the wells of untreated control cells. The cells were processed following the instructions provided with the kit. The assays were performed on the same cell lines used to determine the levels of the MYCN gene messenger and listed in the paragraph: Treatments with Oligonucleotides-QT-PCR. The PNAs having SEQ ID NO: 1-12 were also tested on different cell lines which overexpress MYCN (Kelly, SKNBE2c, RH30, […] 1 and H69). The results are shown in Table 6 and confirm the selectivity and specificity of the inhibition effect of the PNAs on the product of protein translation of the MYCN gene. Chimeric oligonucleotides comprising DNA monomers and LNA monomers and having the MYCN gene as their target were tested in vitro on alveolar rabdomyosarcoma cells (RH30). […] The antisense oligonucleotides designed and synthesized by the Applicant according to the parameters described in the present invention were analyzed in vitro on rabdomyosarcoma cells (RH30).

[2] = system: WiT49; assay: Cellular proliferation assay (ATP-Lite), WiT49 cells; details: Table 6
Procedure: For the purpose of assessing the gene modulation ability of the oligonucleotides of the present invention, the effect of their administration on cell viability was determined. For this purpose 5×10^3 cells per well were seeded into 96-well cell culture plates (experiments conducted in triplicate) with 100 μl of OPTI-MEM (GIBCO BRL) medium containing 4% FBS and 2 mM of L-glutammine. The PNA oligonucleotides were administered at different concentrations (1 μM-2.5 μM-5 μM-10 μM) in order to observe a dose-effect relationship. The viability of the treated cells was determined at 48, 72, 96 and 168 hours after treatment. Cell viability was assessed by means of an ATP-Lite assay (Luminescence ATP Detection Assay System, PerkinElmer) and is reported as the ratio between the average signal of the treated wells compared to the average value of the wells of untreated control cells. The cells were processed following the instructions provided with the kit. The assays were performed on the same cell lines used to determine the levels of the MYCN gene messenger and listed in the paragraph: Treatments with Oligonucleotides-QT-PCR. The PNAs having SEQ ID NO: 1-12 were also tested on different cell lines which overexpress MYCN (Kelly, SKNBE2c, RH30, […] 1 and H69). The results are shown in Table 6 and confirm the selectivity and specificity of the inhibition effect of the PNAs on the product of protein translation of the MYCN gene.

[3] = system: MYCN gene; assay: QT-PCR, MYCN mRNA in WiT49 cells; details: Table 6
Procedure: For the purpose of assessing the ability of the oligonucleotides of the present invention to modulate the expression of the target genes, their ability to reduce the quantity of messenger RNA was analyzed using the Real-Time PCR technique. For this purpose, use was made of 24-well plates, which were seeded with 5.0×10^4 cells with 0.3 ml of OPTI-MEM (GIBCO BRL) medium, 4% FBS and 2 mM L-glutammine (experiments in triplicate) per well. The cells were incubated for 24 hours at 37° C., in an atmosphere containing 5% CO2 to permit adherence to the base of the wells. For each well, the oligonucleotides were analyzed at the following final concentrations: • the antisense oligonucleotides siRNA and siRNA gapmer (i.e. the oligonucleotides containing one or more monomers of chemically modified nucleic acids at the 3' or 5' end, while in the central portion they have monomers of nucleic acids that have not been modified or have been modified at the level of the phosphodiester bond as a phosphorothioate bond) were used at 200 nM; • the antisense oligonucleotides containing phosphorothioate DNA monomers, the RNA antigene oligonucleotides (agRNA) and the oligonucleotides containing DNA monomers and LNA monomers were used at 10 μM; • the morpholino oligonucleotides were used at a concentration of 1 μM, and • the PNA oligonucleotides were administered at a concentration of 1 μM. The cells were treated with the oligonucleotides, adding FBS up to 4% 6 hours after administration of the same. After 24 hours the total RNA was extracted from each well and purified using the RNeasy Mini Kit (QIAGEN). Assays were performed on 8 cell lines obtained from 5 different human tumours which are correlated with MYCN expression, i.e.: • as a neuroblastoma model use was made of the cell lines Kelly, IMR-32 (where the MYCN gene is amplified and superexpressed) and SKNBE2c and LAN1 (where the MYCN gene is amplified and superexpressed and the p53 gene is mutated); • as a rabdomiosarcoma model use was made of the cell line RH30, where the MYCN gene is amplified and superexpressed; • as a Wilms' tumour model use was made of the cell line WiT49, where the MYCN gene is amplified and superexpressed; • as a retinoblastoma model use was made of the cell line Y79, where the MYCN gene is amplified and superexpressed; and • as a model of small cell lung cancer use was made of the cell line H69 where the MYCN gene is amplified and superexpressed. As a control, use was made of the same cell lines as listed above treated with sterile water instead of oligonucleotides. Each RNA sample was quantified (in duplicate) using a NanoDrop ND-1000 spectrophotometer (NanoDrop Technologies). The first strand of cDNA was produced using the cDNA Synthesis Kit for RT-PCR (Roche). For the cDNA synthesis reaction a total of 1 μg of RNA was used. For the real-time PCR, 10 ng of cDNA in a final volume of 20 μl was used with SYBR Green Master Mix 2× (Applied Biosystems) (3 identical experiments were conducted in triplicate). Two housekeeping genes were used as positive controls: GAPDH and beta-actin (ACTB). The conditions of the QT-PCR reaction were: 10 min at 95° C., 20 sec at 95° C., and 30 sec at 60° C., for 50 cycles. The PNAs having SEQ ID NO: 1-12 were also tested on different cell lines which overexpress MYCN (Kelly, SKNBE2c, RH30, […] 1 and H69). The results are shown in Table 6 and confirm the selectivity and specificity of the inhibition effect of the PNAs on the product of protein translation of the MYCN gene.

Substance	RH30 % cell prol. [1] [%]	WiT49 % cell prol. [2] [%]	WiT49 % mRNA [3] [%]
SEQ ID NO: 1: PNA ATGCCGGGCATGATCT against MYCN; subject of patent EP 1618195, control sequence used for comparison (all peptide nucleic acid (PNA)) [reference compound]	76	74	62
SEQ ID NO: 2: PNA antigene oligonucleotide GGGTGGATGCGGGGGG directed against MYCN (PNA backbone, chemistry not fully specified)	56	54	78
SEQ ID NO: 3: PNA antigene oligonucleotide GATGCGGGGGGCTCCT directed against MYCN (PNA backbone, chemistry not fully specified)	59	57	75
SEQ ID NO: 4: PNA antigene oligonucleotide GTCGGCGGGAGGTAAG directed against MYCN (PNA backbone, chemistry not fully specified)	62	60	73
SEQ ID NO: 5: PNA antigene oligonucleotide GCTGGGTGGATGCGGG directed against MYCN (PNA backbone, chemistry not fully specified)	64	63	69
SEQ ID NO: 6: PNA antigene oligonucleotide TGGACGCGCTGGGTGG directed against MYCN (PNA backbone, chemistry not fully specified)	64	65	68
SEQ ID NO: 7: PNA antigene oligonucleotide CGCGCTGGGTGGATGC directed against MYCN (all peptide nucleic acid (PNA))	63	60	70
SEQ ID NO: 8: PNA antigene oligonucleotide GTCTGGACGCGCTGGG directed against MYCN (all peptide nucleic acid (PNA))	60	62	72
SEQ ID NO: 9: PNA antigene oligonucleotide CCCTGCAGTCGGCGGG directed against MYCN (all peptide nucleic acid (PNA))	71	68	66
SEQ ID NO: 10: PNA antigene oligonucleotide CGGCCGCGGGCCGCCA directed against MYCN (PNA backbone, chemistry not fully specified)	80	70	60
SEQ ID NO: 11: PNA antigene oligonucleotide GGGAACTGTGTTGGAG directed against MYCN (PNA backbone, chemistry not fully specified)	78	72	60
SEQ ID NO: 12: PNA antigene oligonucleotide TGTCTGGACGCGCTGG directed against MYCN (all peptide nucleic acid (PNA))	77	73	62
